According to paper PMC5962878, “The Somatostatin Receptor-4 Agonist J-2156 Alleviates Mechanical Hypersensitivity in a Rat Model of Breast Cancer Induced Bone Pain” (Frontiers in Pharmacology, 2018):

Assays:
[1] = target: T1, human somatostatin receptor type 1 (H-SST1) (Homo sapiens, UniProt P30872); experiment: radioligand competition, CHO-K1 membranes, […]-Tyr3-somatostatin-14; type: binding; details: read-out: Mean (±SEM) Ki values (nM) / H-SST1 receptor
T1 construct: gene SSTR1; stably expressed in CHO-K1, membranes from Perkin Elmer
T1 sequence (P30872 whole entry): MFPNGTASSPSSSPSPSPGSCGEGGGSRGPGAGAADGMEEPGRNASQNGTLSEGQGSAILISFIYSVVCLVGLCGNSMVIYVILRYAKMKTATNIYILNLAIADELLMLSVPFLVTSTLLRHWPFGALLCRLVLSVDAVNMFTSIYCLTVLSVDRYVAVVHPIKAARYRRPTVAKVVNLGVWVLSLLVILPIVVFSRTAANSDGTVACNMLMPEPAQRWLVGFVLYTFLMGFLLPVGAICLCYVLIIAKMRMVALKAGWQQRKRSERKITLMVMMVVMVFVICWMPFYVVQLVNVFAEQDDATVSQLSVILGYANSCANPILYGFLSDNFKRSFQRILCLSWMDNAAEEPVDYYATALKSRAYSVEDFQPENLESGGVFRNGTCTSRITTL

[2] = target: T2, rat SST4 receptor (R-SST4) (Rattus norvegicus, UniProt P30937); experiment: LANCE cAMP, inhibition of forskolin-stimulated cAMP, H4 cells; type: cell-based; details: read-out: Mean (±SEM) IC50 values (nM) / R-SST4
T2 construct: gene Sstr4; H4 cells for cAMP
T2 sequence (P30937 whole entry): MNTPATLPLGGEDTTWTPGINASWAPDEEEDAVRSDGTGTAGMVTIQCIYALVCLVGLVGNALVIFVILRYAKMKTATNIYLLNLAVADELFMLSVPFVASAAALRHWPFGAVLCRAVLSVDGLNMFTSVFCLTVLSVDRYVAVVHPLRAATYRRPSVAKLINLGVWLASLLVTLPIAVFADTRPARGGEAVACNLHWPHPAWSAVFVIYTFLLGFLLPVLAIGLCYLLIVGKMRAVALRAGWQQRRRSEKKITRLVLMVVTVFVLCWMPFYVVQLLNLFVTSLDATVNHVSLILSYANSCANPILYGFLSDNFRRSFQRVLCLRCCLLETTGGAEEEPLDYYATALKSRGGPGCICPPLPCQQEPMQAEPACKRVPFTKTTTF

[3] = target: T3, human somatostatin receptor type 2 (H-SST2) (Homo sapiens, UniProt P30874); experiment: radioligand competition, CHO-K1 membranes, […]-Tyr3-somatostatin-14; type: binding; details: read-out: Mean (±SEM) Ki values (nM) / H-SST2 receptor
T3 construct: gene SSTR2; stably expressed in CHO-K1, membranes from Perkin Elmer
T3 sequence (P30874 whole entry): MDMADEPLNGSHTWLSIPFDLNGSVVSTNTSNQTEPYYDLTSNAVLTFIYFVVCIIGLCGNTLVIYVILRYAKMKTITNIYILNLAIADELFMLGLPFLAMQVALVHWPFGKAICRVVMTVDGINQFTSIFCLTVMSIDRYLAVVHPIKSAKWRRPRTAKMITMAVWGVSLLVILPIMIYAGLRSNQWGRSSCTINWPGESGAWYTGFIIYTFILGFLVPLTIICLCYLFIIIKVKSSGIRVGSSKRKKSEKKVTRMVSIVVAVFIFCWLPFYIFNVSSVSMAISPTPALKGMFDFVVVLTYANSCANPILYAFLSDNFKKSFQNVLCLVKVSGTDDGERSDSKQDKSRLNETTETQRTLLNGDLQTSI

[4] = target: T4, human SST4 receptor (H-SST4) (Homo sapiens, UniProt P31391); experiment: as above; type: binding; details: read-out: Mean (±SEM) Ki values (nM) / H-SST4 receptor
T4 construct: gene SSTR4; H4 cells (Perkin Elmer) for cAMP
T4 sequence (P31391 whole entry): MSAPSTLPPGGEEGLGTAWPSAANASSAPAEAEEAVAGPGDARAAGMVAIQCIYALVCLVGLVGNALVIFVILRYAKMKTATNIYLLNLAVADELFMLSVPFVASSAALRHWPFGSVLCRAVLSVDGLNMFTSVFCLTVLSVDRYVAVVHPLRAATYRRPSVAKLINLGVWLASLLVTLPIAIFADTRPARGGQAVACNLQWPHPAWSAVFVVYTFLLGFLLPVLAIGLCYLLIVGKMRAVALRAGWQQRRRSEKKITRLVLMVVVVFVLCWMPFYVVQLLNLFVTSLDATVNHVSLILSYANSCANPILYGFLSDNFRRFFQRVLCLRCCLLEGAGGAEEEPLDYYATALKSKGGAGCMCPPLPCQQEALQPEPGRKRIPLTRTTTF

[5] = target: T5, human somatostatin receptor type 3 (H-SST3) (Homo sapiens, UniProt P32745); experiment: as above; type: binding; details: read-out: Mean (±SEM) Ki values (nM) / H-SST3 receptor
T5 construct: gene SSTR3; stably expressed in CHO-K1, membranes from Perkin Elmer
T5 sequence (P32745 whole entry): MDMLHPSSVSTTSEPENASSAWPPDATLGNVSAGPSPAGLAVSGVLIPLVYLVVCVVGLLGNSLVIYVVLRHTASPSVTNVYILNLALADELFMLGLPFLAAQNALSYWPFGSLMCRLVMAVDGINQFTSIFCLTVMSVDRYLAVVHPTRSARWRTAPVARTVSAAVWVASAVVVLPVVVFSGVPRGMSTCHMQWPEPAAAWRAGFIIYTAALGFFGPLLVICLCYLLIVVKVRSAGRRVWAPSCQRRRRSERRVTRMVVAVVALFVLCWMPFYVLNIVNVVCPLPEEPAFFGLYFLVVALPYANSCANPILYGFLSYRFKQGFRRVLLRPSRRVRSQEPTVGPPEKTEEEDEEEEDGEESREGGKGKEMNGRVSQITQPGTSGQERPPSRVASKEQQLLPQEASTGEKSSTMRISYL

[6] = target: T2, rat SST4 receptor (R-SST4); experiment: as above; type: binding; details: read-out: Mean (±SEM) Ki values (nM) / R-SST4 receptor
[7] = target: T6, human somatostatin receptor type 5 (H-SST5) (Homo sapiens, UniProt P35346); experiment: as above; type: binding; details: read-out: Mean (±SEM) Ki values (nM) / H-SST5 receptor
T6 construct: gene SSTR5; stably expressed in CHO-K1, membranes from Perkin Elmer; printed catalogue number ES-522-M400UA is the same as for type 3 (likely misprint)
T6 sequence (P35346 whole entry): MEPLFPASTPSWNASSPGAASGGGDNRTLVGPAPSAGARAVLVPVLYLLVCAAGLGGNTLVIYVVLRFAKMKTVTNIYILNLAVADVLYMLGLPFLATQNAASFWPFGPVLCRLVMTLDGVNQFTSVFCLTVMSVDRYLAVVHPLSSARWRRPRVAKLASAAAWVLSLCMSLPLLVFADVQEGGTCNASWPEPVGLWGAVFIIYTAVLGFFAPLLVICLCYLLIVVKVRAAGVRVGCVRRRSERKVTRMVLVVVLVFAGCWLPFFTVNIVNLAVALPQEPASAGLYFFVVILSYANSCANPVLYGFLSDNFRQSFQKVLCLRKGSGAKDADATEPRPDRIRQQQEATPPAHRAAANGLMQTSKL

[8] = target: T4, human SST4 receptor (H-SST4); experiment: LANCE cAMP, inhibition of forskolin-stimulated cAMP, H4 cells; type: cell-based; details: read-out: Mean (±SEM) IC50 values (nM) / H-SST4

Structure (SMILES): Cc1ccc(S(=O)(=O)N[C@@H](CCN)C(=O)N[C@@H](Cc2ccccc2)C(N)=O)c2ccccc12 [J-2156, (1′S,2S)-4amino-N-(1′-carbamoyl-2′-phenylethyl)-2-(4″-methyl-1″-naphthalenesulfonylamino)butanamide]
- Ki [1]: 589 ± 266 nM
- IC50 [2]: 0.07 ± 0.005 nM
- Ki [3]: 25100 nM
- Ki [4]: 0.56 ± 0.1 nM
- Ki [5]: 234 ± 112 nM
- Ki [6]: 0.89 ± 0.64 nM
- Ki [7]: 468 ± 156 nM
- IC50 [8]: 0.05 ± 0.01 nM
